{"source": "ChEMBL document CHEMBL3301546", "about": "“MMV Malaria Box yeast growth screening”", "assay_type_in_all_cases": "functional", "key": {"[1]": {"system": "Saccharomyces cerevisiae", "assay": "(§1) MMV: Growth assays were conducted using the prototrophic S. cerevisiae strain JHY222. Each MMV compound (0.1 mM) was tested in minimal media containing dextrose as a carbon source (Yeast Nitrogen Base, Dextrose; YNBD). The growth rate in the presence of each MMV compound was calculated as follows: (i) the first 10 OD readings were averaged and subtracted from all OD readings of the corresponding curve to set the baseline of the growth curve to zero, and (ii) the area under the curve (AUC) was then calculated as the sum of all OD readings. […] A relative growth value was calculated as follows: AUC(DRUG) - AUC(DMSO)/AUC(DMSO); where AUC(DMSO) represents growth measured in a DMSO control well that was on the same microtiter plate of the drug-treated culture."}, "[2]": {"system": "Saccharomyces cerevisiae", "assay": "as §1, with “ethanol and glycerol” for “dextrose”, “as” for “as a”, “sources” for “source”, “Ethanol, Glycerol; YNBEG).” for “Dextrose; YNBD).”"}, "[3]": {"system": "Saccharomyces cerevisiae", "assay": "as §1, with “rich” for “minimal”, “Extract, Peptone,” for “Nitrogen Base,”, “YPD).” for “YNBD).”"}}}
{"smiles": "COc1cccc(Cn2c(Oc3ccccc3)nc3c2c(=O)n(C)c(=O)n3C)c1", "values": [{"measurement": "Relative Growth", "setting": "[1]", "result": -0.1115}, {"measurement": "Relative Growth", "setting": "[2]", "result": -0.4904}, {"measurement": "Relative Growth", "setting": "[3]", "result": -0.0536}]}
{"smiles": "CCn1nc(-c2ccc(C(=O)OC)cc2)nc2c(=O)n(C)c(=O)nc1-2", "values": [{"measurement": "Relative Growth", "setting": "[1]", "result": 0.0968}, {"measurement": "Relative Growth", "setting": "[2]", "result": 0.1078}, {"measurement": "Relative Growth", "setting": "[3]", "result": 0.0103}]}
{"smiles": "CN1CCN(c2ncnc3c2[nH]c2ccc(Cl)cc23)CC1", "values": [{"measurement": "Relative Growth", "setting": "[1]", "result": 0.0494}, {"measurement": "Relative Growth", "setting": "[2]", "result": 0.0216}, {"measurement": "Relative Growth", "setting": "[3]", "result": 0.0011}]}
{"smiles": "CC1(c2ccccc2)Nc2ccccc2-c2nc3ccccc3n21", "note": "(stereo not given)", "values": [{"measurement": "Relative Growth", "setting": "[1]", "result": -0.2999}, {"measurement": "Relative Growth", "setting": "[2]", "result": -0.5975}, {"measurement": "Relative Growth", "setting": "[3]", "result": -0.9988}]}
{"smiles": "COc1cccc(C2(C)Nc3ccccc3-c3nc4ccccc4n32)c1", "note": "(stereo not given)", "values": [{"measurement": "Relative Growth", "setting": "[1]", "result": -0.0211}, {"measurement": "Relative Growth", "setting": "[2]", "result": -0.0556}, {"measurement": "Relative Growth", "setting": "[3]", "result": 0.098}]}
{"smiles": "CC(C)CNC(=O)c1c(N)n(CCc2ccccc2F)c2nc3ccccc3nc12", "values": [{"measurement": "Relative Growth", "setting": "[1]", "result": 0.1192}, {"measurement": "Relative Growth", "setting": "[2]", "result": -0.2111}, {"measurement": "Relative Growth", "setting": "[3]", "result": 0.0072}]}
{"smiles": "Cc1cccc(-n2ncc3c(O)nc(-n4nc(C)cc4NC(=O)c4cc5ccccc5o4)nc32)c1", "values": [{"measurement": "Relative Growth", "setting": "[1]", "result": -0.2202}, {"measurement": "Relative Growth", "setting": "[2]", "result": -0.0822}, {"measurement": "Relative Growth", "setting": "[3]", "result": -0.0284}]}
{"smiles": "COc1cccc(O)c1CN1CCC2(CCCN(Cc3ccc(F)cc3)C2)C1", "note": "(stereo not given)", "values": [{"measurement": "Relative Growth", "setting": "[1]", "result": 0.0312}, {"measurement": "Relative Growth", "setting": "[2]", "result": 0.0078}, {"measurement": "Relative Growth", "setting": "[3]", "result": 0.0333}]}
{"smiles": "COc1cccc(Nc2nc(NCCO)c3ccccc3n2)c1.Cl", "values": [{"measurement": "Relative Growth", "setting": "[1]", "result": -0.0288}, {"measurement": "Relative Growth", "setting": "[2]", "result": -0.0151}, {"measurement": "Relative Growth", "setting": "[3]", "result": 0.0163}]}
{"smiles": "CN(C)CCCNCc1ccc(-c2ccc(F)c(Cl)c2)o1.Cl", "values": [{"measurement": "Relative Growth", "setting": "[1]", "result": 0.0576}, {"measurement": "Relative Growth", "setting": "[2]", "result": 0.0645}, {"measurement": "Relative Growth", "setting": "[3]", "result": -0.0396}]}
{"smiles": "O=C(NC(c1ccccc1)c1ccc2cccnc2c1O)c1ccccc1", "note": "(stereo not given)", "values": [{"measurement": "Relative Growth", "setting": "[1]", "result": -0.0745}, {"measurement": "Relative Growth", "setting": "[2]", "result": -0.2626}, {"measurement": "Relative Growth", "setting": "[3]", "result": 0.0169}]}
{"smiles": "CC(=O)Nc1nnc(SCc2c(C)cc(C(C)(C)C)cc2C)s1", "values": [{"measurement": "Relative Growth", "setting": "[1]", "result": 0.0621}, {"measurement": "Relative Growth", "setting": "[2]", "result": 0.0163}, {"measurement": "Relative Growth", "setting": "[3]", "result": 0.0168}]}
{"smiles": "O=C(Nc1ccc(CN2CCOCC2)cc1)c1ccc(-c2cc(Cl)ccc2Cl)o1", "values": [{"measurement": "Relative Growth", "setting": "[1]", "result": 0.0214}, {"measurement": "Relative Growth", "setting": "[2]", "result": -0.173}, {"measurement": "Relative Growth", "setting": "[3]", "result": 0.0021}]}
{"smiles": "Oc1ccc(Cl)cc1CNc1nc2ccccc2[nH]1", "values": [{"measurement": "Relative Growth", "setting": "[1]", "result": -0.0661}, {"measurement": "Relative Growth", "setting": "[2]", "result": -0.0134}, {"measurement": "Relative Growth", "setting": "[3]", "result": -0.0141}]}
{"smiles": "COc1cccc(C(=O)Nc2ccc(-c3nc4ccccc4[nH]3)cc2)c1", "values": [{"measurement": "Relative Growth", "setting": "[1]", "result": 0.0184}, {"measurement": "Relative Growth", "setting": "[2]", "result": 0.0109}, {"measurement": "Relative Growth", "setting": "[3]", "result": -0.0256}]}
{"smiles": "COCCn1c(C)nc2ccccc2c1=O", "values": [{"measurement": "Relative Growth", "setting": "[1]", "result": 0.0485}, {"measurement": "Relative Growth", "setting": "[2]", "result": -0.2443}, {"measurement": "Relative Growth", "setting": "[3]", "result": -0.0038}]}
{"smiles": "O=C(Nc1cccc(-c2nc3ccccc3[nH]2)c1)c1cccc(NC(=O)c2ccco2)c1", "values": [{"measurement": "Relative Growth", "setting": "[1]", "result": -0.0641}, {"measurement": "Relative Growth", "setting": "[2]", "result": -0.4658}, {"measurement": "Relative Growth", "setting": "[3]", "result": -0.1741}]}
{"smiles": "O=C(NC1CCN(Cc2ccccc2)CC1)c1cc(-c2cccnc2)nc2ccc(Cl)cc12", "values": [{"measurement": "Relative Growth", "setting": "[1]", "result": 0.0617}, {"measurement": "Relative Growth", "setting": "[2]", "result": 0.017}, {"measurement": "Relative Growth", "setting": "[3]", "result": -0.0203}]}
{"smiles": "COc1nc(Nc2ccc(C(C)C)cc2)nc(OC)n1", "values": [{"measurement": "Relative Growth", "setting": "[1]", "result": 0.0529}, {"measurement": "Relative Growth", "setting": "[2]", "result": 0.0254}, {"measurement": "Relative Growth", "setting": "[3]", "result": -0.007}]}
{"smiles": "CCOc1cccc(C(=O)Nc2ccc(-c3nc4ccccc4[nH]3)cc2)c1", "values": [{"measurement": "Relative Growth", "setting": "[1]", "result": 0.0858}, {"measurement": "Relative Growth", "setting": "[2]", "result": 0.032}, {"measurement": "Relative Growth", "setting": "[3]", "result": -0.0469}]}
{"smiles": "Cc1cc(NC(=O)c2ccc(-c3ccccc3)cc2)no1", "values": [{"measurement": "Relative Growth", "setting": "[1]", "result": 0.0468}, {"measurement": "Relative Growth", "setting": "[2]", "result": 0.0052}, {"measurement": "Relative Growth", "setting": "[3]", "result": -0.0826}]}
{"smiles": "O=C(Nc1ccc(N2CCN(Cc3ccccc3)CC2)cc1)c1cccs1.O=C(O)C(F)(F)F", "values": [{"measurement": "Relative Growth", "setting": "[1]", "result": -0.0637}, {"measurement": "Relative Growth", "setting": "[2]", "result": -0.0052}, {"measurement": "Relative Growth", "setting": "[3]", "result": -0.129}]}
{"smiles": "O=C(Nc1ccc(N2CCCCC2)c(Cl)c1)c1ccc(Br)o1", "values": [{"measurement": "Relative Growth", "setting": "[1]", "result": -0.1788}, {"measurement": "Relative Growth", "setting": "[2]", "result": -0.1511}, {"measurement": "Relative Growth", "setting": "[3]", "result": -0.0318}]}
{"smiles": "O=C1CC(O)(C(F)(F)C(F)(F)F)Oc2ccccc21", "note": "(stereo not given)", "values": [{"measurement": "Relative Growth", "setting": "[1]", "result": -0.042}, {"measurement": "Relative Growth", "setting": "[2]", "result": -0.6809}, {"measurement": "Relative Growth", "setting": "[3]", "result": -0.0644}]}
{"smiles": "O=C(Nc1cccc(C(F)(F)F)c1)c1cc(Cl)ccc1O", "values": [{"measurement": "Relative Growth", "setting": "[1]", "result": -1.0097}, {"measurement": "Relative Growth", "setting": "[2]", "result": -1.011}, {"measurement": "Relative Growth", "setting": "[3]", "result": -0.651}]}
{"smiles": "OC(CNC1CCCC1)Cn1c2ccccc2c2ccccc21", "note": "(stereo not given)", "values": [{"measurement": "Relative Growth", "setting": "[1]", "result": -0.142}, {"measurement": "Relative Growth", "setting": "[2]", "result": -0.0741}, {"measurement": "Relative Growth", "setting": "[3]", "result": -0.0524}]}
{"smiles": "Cc1ccc(NC(=O)Nc2cccc(Cl)c2)cc1F", "values": [{"measurement": "Relative Growth", "setting": "[1]", "result": 0.0155}, {"measurement": "Relative Growth", "setting": "[2]", "result": 0.0189}, {"measurement": "Relative Growth", "setting": "[3]", "result": -0.0033}]}
{"smiles": "CCOc1ccc(/C=C/c2nc(=O)c3ccccc3o2)cc1", "values": [{"measurement": "Relative Growth", "setting": "[1]", "result": 0.0067}, {"measurement": "Relative Growth", "setting": "[2]", "result": 0.0498}, {"measurement": "Relative Growth", "setting": "[3]", "result": 0.0045}]}
{"smiles": "Oc1c(CN2CCN(c3ccccc3F)CC2)cc(Br)c2cccnc12", "values": [{"measurement": "Relative Growth", "setting": "[1]", "result": 0.0189}, {"measurement": "Relative Growth", "setting": "[2]", "result": 0.0379}, {"measurement": "Relative Growth", "setting": "[3]", "result": -0.0397}]}
{"smiles": "CCCCc1c(C)nc2c(OC)cccc2c1O", "values": [{"measurement": "Relative Growth", "setting": "[1]", "result": -0.0292}, {"measurement": "Relative Growth", "setting": "[2]", "result": 0.0348}, {"measurement": "Relative Growth", "setting": "[3]", "result": -0.0392}]}
{"smiles": "CCOC(=O)C1CCN(C(=O)CN2C(=O)c3ccccc3C2c2c[nH]c3ccccc23)CC1", "note": "(stereo not given)", "values": [{"measurement": "Relative Growth", "setting": "[1]", "result": -0.2514}, {"measurement": "Relative Growth", "setting": "[2]", "result": -0.5143}, {"measurement": "Relative Growth", "setting": "[3]", "result": -1.0024}]}
{"smiles": "CCCN(CCC)CCCNC(=O)c1cc2c(-c3ccc(OC)c(OC)c3)nn(C)c2s1", "values": [{"measurement": "Relative Growth", "setting": "[1]", "result": -0.0982}, {"measurement": "Relative Growth", "setting": "[2]", "result": -0.061}, {"measurement": "Relative Growth", "setting": "[3]", "result": -0.0057}]}
{"smiles": "CC1CCCCN1CCCNC(=O)c1ccc2c(c1)sc1nc(-c3ccc(F)cc3)cn12", "note": "(stereo not given)", "values": [{"measurement": "Relative Growth", "setting": "[1]", "result": 0.1056}, {"measurement": "Relative Growth", "setting": "[2]", "result": -0.161}, {"measurement": "Relative Growth", "setting": "[3]", "result": 0.083}]}
{"smiles": "Br.CCN(CC)S(=O)(=O)c1ccc(-c2csc(Nc3ccc(C)c(C)c3)n2)cc1", "values": [{"measurement": "Relative Growth", "setting": "[1]", "result": 0.0785}, {"measurement": "Relative Growth", "setting": "[2]", "result": -0.6715}, {"measurement": "Relative Growth", "setting": "[3]", "result": -0.1037}]}
{"smiles": "Cc1c(C)n(CC(O)CNC2CCCCC2C)c2ccccc12", "note": "(stereo not given)", "values": [{"measurement": "Relative Growth", "setting": "[1]", "result": -0.0308}, {"measurement": "Relative Growth", "setting": "[2]", "result": -0.2246}, {"measurement": "Relative Growth", "setting": "[3]", "result": -0.0794}]}
